PMC12010950, “Discover the Power of Lithospermic Acid as Human Carbonic Anhydrase VA and Pancreatic Lipase Inhibitor Through In Silico and In Vitro Studies” (Archiv Der Pharmazie, 2025)
Values joined by “and” are separate entries in the source; they are usually repeats but may differ in a detail not shown here. Equal entries are not always repeated. “Also recorded” adds a separate entry of the source. Where two headings read alike, the source gives them in different places.

How the values were obtained:
[1] = target: T1, PL (pancreatic lipase) from porcine pancreas (Sus scrofa, UniProt P00591); settings: cited from earlier work
T1 sequence (P00591 1-450): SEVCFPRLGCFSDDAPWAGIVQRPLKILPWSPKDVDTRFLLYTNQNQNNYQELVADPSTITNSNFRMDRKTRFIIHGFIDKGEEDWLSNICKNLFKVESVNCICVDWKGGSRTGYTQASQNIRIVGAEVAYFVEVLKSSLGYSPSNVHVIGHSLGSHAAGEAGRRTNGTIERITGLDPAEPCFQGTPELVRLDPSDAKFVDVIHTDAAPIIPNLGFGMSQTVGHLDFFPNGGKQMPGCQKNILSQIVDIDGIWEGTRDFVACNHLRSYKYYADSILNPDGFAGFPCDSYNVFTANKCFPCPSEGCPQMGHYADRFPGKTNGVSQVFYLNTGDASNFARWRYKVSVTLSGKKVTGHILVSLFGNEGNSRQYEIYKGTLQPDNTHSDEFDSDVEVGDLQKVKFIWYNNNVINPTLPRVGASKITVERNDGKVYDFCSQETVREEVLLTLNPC

[2] = target: T1, PL (pancreatic lipase) from porcine pancreas; assay: Pancreatic lipase inhibition, spectrophotometric p-nitrophenyl butyrate assay; settings: IC50 (µM) ± SD, p-nitrophenyl butyrate substrate, 37°C
Procedure: The inhibition of PL (from porcine pancreas; see Supporting Information) was assessed using previously described spectrophotometric methods [15, 16, 30]. […] Thus, a lower value indicates higher inhibitory activity.
The reactions were incubated at 37°C for 10 min. Then, the substrate p‐nitrophenyl butyrate (3.2 mM in H2O/DMF 70:30, 10 μL) was pipetted, and the microplate was incubated at 37°C for 30 min under moderate shaking.

[3] = target: T2, hCA I (Homo sapiens, UniProt P00915); assay: Stopped-flow CO2 hydrase assay; format: biochemical; settings: mean from 3 assays, read-out: K i hCA I
T2 construct: made in house
T2 sequence (P00915 whole entry): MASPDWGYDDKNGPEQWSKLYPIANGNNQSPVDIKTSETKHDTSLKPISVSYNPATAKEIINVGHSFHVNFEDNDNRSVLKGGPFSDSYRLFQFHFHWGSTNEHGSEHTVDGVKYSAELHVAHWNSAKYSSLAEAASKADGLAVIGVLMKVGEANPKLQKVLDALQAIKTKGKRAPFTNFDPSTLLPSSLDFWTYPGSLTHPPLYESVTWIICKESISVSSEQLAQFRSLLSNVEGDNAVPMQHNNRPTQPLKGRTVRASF
Procedure: (§1) An Applied Photophysics stopped‐flow instrument was used to assay the CA‐catalyzed CO2 hydration activity. […] The uncatalyzed rates were determined in the same manner and subtracted from the total observed rates. Stock solutions of the inhibitor (0.1 mM) were prepared in distilled−deionized water, and dilutions up to 0.01 nM were done thereafter with the assay buffer. Inhibitor and enzyme solutions were preincubated together for 15 min at room temperature before the assay, to allow for the formation of the E − I complex. The inhibition constants were obtained by nonlinear least‐squares methods using PRISM 3 and the Cheng–Prusoff equation as reported earlier and represent the mean from at least three different determinations. All CA isoforms were recombinant proteins obtained in house, as reported earlier.

[4] = target: T3, hCA II (Homo sapiens, UniProt P00918); assay: Stopped-flow CO2 hydrase assay; format: biochemical; settings: mean from 3 assays, read-out: K i hCA II
T3 construct: made in house
Procedure: as §1

[5] = target: T4, hCA VA (Homo sapiens, UniProt P35218); assay: Stopped-flow CO2 hydrase assay; format: biochemical; settings: mean from 3 assays, read-out: K i hCA VA
T4 construct: made in house
T4 sequence (P35218 39-305): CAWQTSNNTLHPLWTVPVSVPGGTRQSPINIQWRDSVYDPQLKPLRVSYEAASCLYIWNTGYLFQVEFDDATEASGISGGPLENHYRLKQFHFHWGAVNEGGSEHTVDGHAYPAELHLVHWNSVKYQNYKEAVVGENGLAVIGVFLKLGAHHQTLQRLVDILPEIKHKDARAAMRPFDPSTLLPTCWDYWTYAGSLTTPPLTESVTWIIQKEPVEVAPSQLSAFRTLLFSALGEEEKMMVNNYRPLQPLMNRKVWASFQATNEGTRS
Procedure: as §1

[6] = target: T5, hCA XII (Homo sapiens, UniProt O43570); assay: Stopped-flow CO2 hydrase assay; format: biochemical; settings: mean from 3 assays, read-out: K i hCA XII
T5 construct: made in house
T5 sequence (O43570 25-354): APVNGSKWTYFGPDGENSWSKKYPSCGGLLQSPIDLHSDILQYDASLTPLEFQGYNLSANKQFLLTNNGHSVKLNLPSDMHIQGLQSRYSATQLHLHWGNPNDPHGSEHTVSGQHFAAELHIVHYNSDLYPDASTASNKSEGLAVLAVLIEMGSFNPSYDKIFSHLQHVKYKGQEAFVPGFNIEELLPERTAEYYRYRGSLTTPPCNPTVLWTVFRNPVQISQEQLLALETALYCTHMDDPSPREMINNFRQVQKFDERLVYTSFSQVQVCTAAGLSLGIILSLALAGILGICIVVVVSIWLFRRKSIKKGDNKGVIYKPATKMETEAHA
Procedure: as §1

[7] = target: T1, PL (pancreatic lipase) from porcine pancreas; assay: Kinetics of PL inhibition (Lineweaver-Burk plots); format: biochemical
Procedure: The inhibition of PL by LTS0059529 on PL was also determined using Lineweaver–Burk graphs, which plot the reciprocal of initial velocity (v 0 ) against the reciprocal of substrate concentration.
The mode of inhibition of PL in the presence of LTS0059529 was determined by elaboration of UV‐vis spectroscopic data with Lineweaver–Burk plots. […] The competitive inhibition constants K i was calculated from the following equation. (2) v0=vmaxS/Km1+I/Ki+S, where ν 0 is the initial velocity in the absence and presence of the inhibitor, S and I are the concentrations of substrate and inhibitor, respectively; ν max is the maximum velocity, K m is the Michaelis–Menten constant. The replot of slopes (K m/ν max) from Lineweaver–Burk plot versus the inhibitor concentration afforded K i value as well.

[8] = system: hCA VB; assay: Stopped-flow CO2 hydrase assay; format: biochemical, human; settings: K i VA / K i VB
Procedure: as §1

[9] = target: T6, hCA IX (Homo sapiens, UniProt Q16790); format: biochemical; settings: read-out: K i hCA IX
T6 construct: made in house
Procedure: as §1

[10] = target: T7, hCA VII (Homo sapiens, UniProt Q9Y2D0); assay: Stopped-flow CO2 hydrase assay (supplement table column); format: biochemical
T7 construct: made in house
T7 sequence (Q9Y2D0 34-317): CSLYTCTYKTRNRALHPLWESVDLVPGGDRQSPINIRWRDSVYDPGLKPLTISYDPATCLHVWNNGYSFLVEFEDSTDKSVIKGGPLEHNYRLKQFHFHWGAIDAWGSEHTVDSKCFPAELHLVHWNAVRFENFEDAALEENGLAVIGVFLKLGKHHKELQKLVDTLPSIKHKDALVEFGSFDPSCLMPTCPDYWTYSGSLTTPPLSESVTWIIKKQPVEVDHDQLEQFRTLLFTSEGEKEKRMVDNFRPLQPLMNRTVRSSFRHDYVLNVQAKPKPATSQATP
Procedure: An Applied Photophysics stopped‐flow instrument was used to assay the CA‐catalyzed CO2 hydration activity. Phenol red (at a concentration of 0.2 mM) was used as an indicator, working at the absorbance maximum of 557 nm, with 20 mM Hepes (pH 7.4) as a buffer, and 20 mM Na2SO4 (to maintain constant ionic strength), following the initial rates of the CA‐catalyzed CO2 hydration reaction for a period of 10 − 100 s. The CO2 concentrations ranged from 1.7 to 17 mM for the determination of the kinetic parameters and inhibition constants. Enzyme concentrations ranged between 5 and 12 nM. For each inhibitor, at least six traces of the initial 5%−10% of the reaction were used to determine the initial velocity. The uncatalyzed rates were determined in the same manner and subtracted from the total observed rates. Stock solutions of the inhibitor (0.1 mM) were prepared in distilled−deionized water, and dilutions up to 0.01 nM were done thereafter with the assay buffer. Inhibitor and enzyme solutions were preincubated together for 15 min at room temperature before the assay, to allow for the formation of the E − I complex. The inhibition constants were obtained by nonlinear least‐squares methods using PRISM 3 and the Cheng–Prusoff equation as reported earlier and represent the mean from at least three different determinations. […]

Row | Structure (SMILES) | Inhibition mode [1] | IC50 [2] | Ki [3] | Ki [4] | Ki [5] | Ki [6] | Inhibition mode ([7]; Lineweaver-Burk plot) | Ki ([7]; from slope of L-B plot lines versus inhibitor concentration) | v max of the reaction ([7]; not affected by the competitive inhibitor) | Inhibition ratio hCA VA versus hCA VB (VB more potently inhibited) [8] | Ki [9] | Ki [10]
1 | CCCCCCCCCCC[C@@H](C[C@@H]1OC(=O)[C@H]1CCCCCC)OC(=O)[C@H](CC(C)C)NC=O [ORL, Orlistat] | Competitive |  |  |  |  |  |  |  |  |  |  | 
2 | O=C(/C=C/c1ccc(O)c2c1[C@H](C(=O)O)[C@@H](c1ccc(O)c(O)c1)O2)O[C@H](Cc1ccc(O)c(O)c1)C(=O)O [LTS0059529, Lithospermic acid] |  | 5.4 µM and 5.45 µM | > 100 µM | > 100 µM | 0.69 ± 0.01 µM | 0.0048 ± 0.003 µM | competitively; also recorded: Competitive | 33.1 ± 1.6 µM | 0.091 ± 0.002 mM/min | 1.15 fold | 0.31 ± 0.01 µM | 0.6 ± 0.02 µM
